Experimental data: article doi:10.1101/2021.05.05.442828v1 (biorxiv, 2021)

Assays:
Type in all cases: cell-based
KCa1.1 (hKCa1.1, KCNMA) = KCa1.1 (hKCa1.1, KCNMA) (Homo sapiens, UniProt Q12791); assay: two-electrode voltage clamp, Xenopus laevis oocytes; conditions: Kulori solution, pH 7.4; n=5
KV11.1 (hERG) = KV11.1 (hERG) (Homo sapiens, UniProt Q12809); assay: automated patch clamp
TRPM8 (hTRPM8) = TRPM8 (hTRPM8) (Homo sapiens, UniProt Q7Z2W7); assay: Fluo-4 calcium flux assay, HEK-293 TRPM8 cells; conditions: antagonist mode; 30 min incubation; normalized to icilin (50 µM) response
Sequence of TRPM8 (hTRPM8) (Q7Z2W7 whole entry): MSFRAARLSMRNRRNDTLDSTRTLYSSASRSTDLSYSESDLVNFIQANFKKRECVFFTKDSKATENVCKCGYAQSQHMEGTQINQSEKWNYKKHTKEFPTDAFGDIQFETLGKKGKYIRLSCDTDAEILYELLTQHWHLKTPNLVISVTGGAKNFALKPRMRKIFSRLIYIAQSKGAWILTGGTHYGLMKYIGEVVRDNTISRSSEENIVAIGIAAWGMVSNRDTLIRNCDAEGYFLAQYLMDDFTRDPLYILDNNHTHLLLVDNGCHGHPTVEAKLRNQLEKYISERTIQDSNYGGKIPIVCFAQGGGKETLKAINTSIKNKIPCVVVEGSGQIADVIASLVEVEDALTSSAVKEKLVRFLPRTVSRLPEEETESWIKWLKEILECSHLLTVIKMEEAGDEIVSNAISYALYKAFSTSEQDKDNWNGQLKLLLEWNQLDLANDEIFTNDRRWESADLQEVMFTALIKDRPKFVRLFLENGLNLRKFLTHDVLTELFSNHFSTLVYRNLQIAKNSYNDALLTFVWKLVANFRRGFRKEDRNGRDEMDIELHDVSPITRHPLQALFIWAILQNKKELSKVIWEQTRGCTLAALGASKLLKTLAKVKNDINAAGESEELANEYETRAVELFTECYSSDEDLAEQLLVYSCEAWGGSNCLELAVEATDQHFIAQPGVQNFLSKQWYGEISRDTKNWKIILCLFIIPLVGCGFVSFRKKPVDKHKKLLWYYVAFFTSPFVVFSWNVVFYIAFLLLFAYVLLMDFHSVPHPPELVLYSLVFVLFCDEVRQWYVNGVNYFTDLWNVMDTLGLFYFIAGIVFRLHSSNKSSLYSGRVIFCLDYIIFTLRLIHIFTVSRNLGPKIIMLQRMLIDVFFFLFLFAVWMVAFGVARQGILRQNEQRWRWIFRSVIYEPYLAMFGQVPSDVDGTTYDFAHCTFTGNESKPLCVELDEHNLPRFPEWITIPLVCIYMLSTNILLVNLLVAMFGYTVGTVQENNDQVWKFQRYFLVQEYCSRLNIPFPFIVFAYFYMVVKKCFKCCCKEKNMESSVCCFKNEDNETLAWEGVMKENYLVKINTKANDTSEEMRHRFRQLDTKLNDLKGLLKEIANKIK

Sequence of KV11.1 (hERG) (Q12809 whole entry): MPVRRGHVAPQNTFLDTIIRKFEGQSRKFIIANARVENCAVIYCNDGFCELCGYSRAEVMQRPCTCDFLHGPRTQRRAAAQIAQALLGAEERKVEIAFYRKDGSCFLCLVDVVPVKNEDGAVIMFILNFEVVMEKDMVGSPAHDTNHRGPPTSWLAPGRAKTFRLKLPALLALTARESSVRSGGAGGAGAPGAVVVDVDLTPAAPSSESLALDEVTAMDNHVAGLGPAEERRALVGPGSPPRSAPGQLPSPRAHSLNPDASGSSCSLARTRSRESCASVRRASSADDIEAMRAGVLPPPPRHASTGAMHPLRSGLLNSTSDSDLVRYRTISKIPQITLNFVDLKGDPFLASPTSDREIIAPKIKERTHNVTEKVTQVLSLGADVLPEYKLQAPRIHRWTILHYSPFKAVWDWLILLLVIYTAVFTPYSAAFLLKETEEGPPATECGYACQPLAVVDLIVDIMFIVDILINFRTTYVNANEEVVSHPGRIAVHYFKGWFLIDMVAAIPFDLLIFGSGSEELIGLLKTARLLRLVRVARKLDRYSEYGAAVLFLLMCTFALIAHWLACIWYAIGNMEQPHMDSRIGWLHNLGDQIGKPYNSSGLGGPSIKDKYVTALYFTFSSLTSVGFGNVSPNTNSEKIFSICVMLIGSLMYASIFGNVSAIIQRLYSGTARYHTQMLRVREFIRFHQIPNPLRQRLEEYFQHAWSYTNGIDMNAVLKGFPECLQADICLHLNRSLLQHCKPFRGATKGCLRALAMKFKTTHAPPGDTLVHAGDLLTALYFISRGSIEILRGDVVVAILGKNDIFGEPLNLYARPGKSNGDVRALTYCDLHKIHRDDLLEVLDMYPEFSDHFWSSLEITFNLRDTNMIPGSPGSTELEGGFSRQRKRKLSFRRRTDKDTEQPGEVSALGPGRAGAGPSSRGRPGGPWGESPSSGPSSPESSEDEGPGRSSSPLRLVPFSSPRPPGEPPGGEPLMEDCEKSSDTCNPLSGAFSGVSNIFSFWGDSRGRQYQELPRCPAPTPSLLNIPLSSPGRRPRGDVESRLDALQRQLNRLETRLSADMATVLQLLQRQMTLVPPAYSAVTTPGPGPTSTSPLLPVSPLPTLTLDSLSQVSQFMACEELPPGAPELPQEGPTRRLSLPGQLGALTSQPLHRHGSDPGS
Sequence of KCa1.1 (hKCa1.1, KCNMA) (Q12791 whole entry): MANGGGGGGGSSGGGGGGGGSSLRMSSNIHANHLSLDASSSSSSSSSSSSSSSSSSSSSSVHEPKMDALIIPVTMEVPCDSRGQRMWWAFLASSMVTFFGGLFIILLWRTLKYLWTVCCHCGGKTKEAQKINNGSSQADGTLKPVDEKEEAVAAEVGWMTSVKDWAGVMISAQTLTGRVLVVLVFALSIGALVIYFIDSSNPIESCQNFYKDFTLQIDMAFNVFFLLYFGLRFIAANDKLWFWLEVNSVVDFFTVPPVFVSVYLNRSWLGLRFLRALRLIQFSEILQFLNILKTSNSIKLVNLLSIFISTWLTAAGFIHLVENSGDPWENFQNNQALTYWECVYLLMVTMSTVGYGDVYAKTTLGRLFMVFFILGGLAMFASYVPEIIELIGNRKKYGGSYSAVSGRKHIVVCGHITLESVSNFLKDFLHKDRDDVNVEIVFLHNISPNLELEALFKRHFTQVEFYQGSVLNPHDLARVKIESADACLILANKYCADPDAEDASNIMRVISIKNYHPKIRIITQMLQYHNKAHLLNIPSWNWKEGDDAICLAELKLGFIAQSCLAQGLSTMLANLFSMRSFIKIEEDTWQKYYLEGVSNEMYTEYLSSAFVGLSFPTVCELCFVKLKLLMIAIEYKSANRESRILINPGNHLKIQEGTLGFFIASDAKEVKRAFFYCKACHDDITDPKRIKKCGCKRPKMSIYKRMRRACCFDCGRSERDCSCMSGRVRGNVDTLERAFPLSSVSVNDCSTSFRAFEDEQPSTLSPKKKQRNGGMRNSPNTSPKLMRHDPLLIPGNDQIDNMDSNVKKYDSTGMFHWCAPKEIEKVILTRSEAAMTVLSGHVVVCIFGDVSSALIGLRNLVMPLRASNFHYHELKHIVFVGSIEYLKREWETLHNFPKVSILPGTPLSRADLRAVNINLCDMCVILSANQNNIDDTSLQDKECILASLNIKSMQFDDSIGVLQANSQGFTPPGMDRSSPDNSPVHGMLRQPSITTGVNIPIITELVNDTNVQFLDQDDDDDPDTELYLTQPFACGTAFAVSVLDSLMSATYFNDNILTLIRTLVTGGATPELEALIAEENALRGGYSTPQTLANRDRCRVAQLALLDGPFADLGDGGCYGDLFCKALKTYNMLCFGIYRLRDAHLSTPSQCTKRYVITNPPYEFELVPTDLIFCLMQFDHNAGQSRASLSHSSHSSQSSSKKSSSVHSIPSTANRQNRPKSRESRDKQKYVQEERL

**Q.** For `COc1c(I)cc(CCN)cc1I` [DIMTA, 2-(3,5-diiodo-4-methoxyphenyl)ethan-1-amine], which “% inhibition at 5 μM” value (KCa1.1 (hKCa1.1, KCNMA)) is on record?
**A.** The value was 18 ± 5%.

**Q.** And the IC50 (KV11.1 (hERG))?
**A.** Its IC50 is 18.7 ± 0.1 µM.

**Q.** And the IC50 (TRPM8 (hTRPM8))?
**A.** The IC50 was 112 µM.
